We go through 20 molecules from US9278527B2, “Ink jet recording ink, ink jet recording method, ink jet recording head, and ink jet recording apparatus” (CANON FINETECH INC., priority 2013, dated 2016).

Like-named read-outs stand apart in the source and are kept apart here.

Data set [1] is described as follows: Hydrophilicity-hydrophobicity coefficient from water activity value of 20% aqueous solution (equation (A)). The class given is physicochemical.
Setting [2] is: 20% aqueous solution, water activity by chilled mirror dew point method (AquaLab CX-3TE) at 25° C., equation (A).

In turn, `CC(O)C(O)CO` (stereo not drawn) [1,2,3-Butanetriol] gave a Hydrophilicity-hydrophobicity coefficient in data set [1] (setting [2]) of 0.22. The same molecule gave a Solubility in the data set “Solubility in water” of over 20 g/100 g H2O. In data set [1] (setting [2]), `OCCC(O)CO` (stereo not drawn) [1,2,4-Butanetriol] returned a Hydrophilicity-hydrophobicity coefficient of 0.15. In addition, the Solubility in “Solubility in water” is over 20 g/100 g H2O. Turning to `OCCCCC(O)CO` (stereo not drawn) [1,2,6-Hexanetriol], the Hydrophilicity-hydrophobicity coefficient in data set [1] (setting [2]) is given as 0.28. The same molecule yielded a Solubility in “Solubility in water” of over 20 g/100 g H2O.

On to `CCC(O)CO` (stereo not drawn) [1,2-Butanediol], for which the Hydrophilicity-hydrophobicity coefficient in data set [1] (setting [2]) stood at 0.90. This molecule also gave a Solubility in “Solubility in water” of over 20 g/100 g H2O. The molecule `CCCCC(O)CO` (stereo not drawn) [1,2-Hexanediol] yielded a Hydrophilicity-hydrophobicity coefficient in data set [1] (setting [2]) of 0.97. Moreover, the Solubility in “Solubility in water” was over 20 g/100 g H2O. In data set [1] (setting [2]), `CCCC(O)CO` (stereo not drawn) [1,2-Pentanediol] came in with a Hydrophilicity-hydrophobicity coefficient of 0.93. Also, the Solubility in the data set “Solubility in water” was over 20 g/100 g H2O. Taken in the same sequence, the figures for `OCCCCCO` [1,5-Pentanediol] were 0.41 and over 20 g/100 g H2O. `OCCCCCCO` [1,6-Hexanediol] displayed a Hydrophilicity-hydrophobicity coefficient in data set [1] (setting [2]) of 0.76. Further, the Solubility in the data set “Solubility in water” was over 20 g/100 g H2O. As to `OCCCCCCCO` [1,7-Heptanediol], in data set [1] (setting [2]), the Hydrophilicity-hydrophobicity coefficient was found to be 0.73. Moreover, the Solubility in the data set “Solubility in water” is over 20 g/100 g H2O. Take `CC(O)CC(C)O` (stereo not drawn) [2,4-Pentanediol]: in data set [1] (setting [2]), the Hydrophilicity-hydrophobicity coefficient came to 0.86. In “Solubility in water”, the Solubility is over 20 g/100 g H2O. Molecule `CC(C)(O)CCO` [3-Methyl-1,3-butanediol] displayed a Hydrophilicity-hydrophobicity coefficient in data set [1] (setting [2]) of 0.90. In the data set “Solubility in water”, this molecule displayed a Solubility of over 20 g/100 g H2O. For `CC(CCO)CCO` [3-Methyl-1,5-Pentanediol], in that order: 0.54 and over 20 g/100 g H2O. For `O=C1NCCN1` [Ethylene urea], the Hydrophilicity-hydrophobicity coefficient in data set [1] (setting [2]) was found to be 0.30. This molecule also displayed a Solubility in “Solubility in water” of over 20 g/100 g H2O. `OCC(O)CO` [Glycerin]: the Hydrophilicity-hydrophobicity coefficient in data set [1] (setting [2]) is recorded as 0.11. The molecule also registered a Solubility in “Solubility in water” of over 20 g/100 g H2O. For `OC[C@@H](O)[C@@H](O)[C@H](O)[C@@H](O)CO` [Sorbitol], in that order: 0.21 and over 20 g/100 g H2O. Taken in the same sequence, the figures for `OCCOCCOCCO` [Triethylene glycol] were 0.07 and over 20 g/100 g H2O. Regarding `NC(N)=O` [Urea], in data set [1] (setting [2]), the Hydrophilicity-hydrophobicity coefficient is on record as 0.20. Also, in the data set “Solubility in water”, the Solubility was over 20 g/100 g H2O. Bishydroxyethyl sulfone gave a Hydrophilicity-hydrophobicity coefficient in data set [1] of 0.21. Consider Polyethylene glycol 200, for which the Hydrophilicity-hydrophobicity coefficient in data set [1] (setting [2]) is recorded as −0.09. This molecule displayed a Solubility in “Solubility in water” of over 20 g/100 g H2O.

Molecule Polyethylene glycol 600 displayed a Hydrophilicity-hydrophobicity coefficient in data set [1] (setting [2]) of −0.43. The Solubility in “Solubility in water” was over 20 g/100 g H2O.
